Four molecules from patent publication US6696471B2, “Aminopyrrole compounds” (Syntex (U.S.A.) LLC, priority 2001, dated 2004) can be followed below.

The structures appear in SMILES notation.

T1 sequence (Q16539 whole entry): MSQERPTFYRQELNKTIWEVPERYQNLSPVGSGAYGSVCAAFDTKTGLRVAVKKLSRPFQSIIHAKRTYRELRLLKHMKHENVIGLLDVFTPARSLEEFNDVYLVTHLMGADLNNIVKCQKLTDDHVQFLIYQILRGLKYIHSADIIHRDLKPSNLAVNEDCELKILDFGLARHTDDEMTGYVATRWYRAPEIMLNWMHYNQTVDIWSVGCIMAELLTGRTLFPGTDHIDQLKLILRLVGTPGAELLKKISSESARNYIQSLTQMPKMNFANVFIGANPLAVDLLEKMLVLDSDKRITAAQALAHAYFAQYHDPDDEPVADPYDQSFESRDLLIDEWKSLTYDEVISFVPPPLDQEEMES

The experiment has as its target T1, p38 MAP kinase (Homo sapiens, UniProt Q16539).
T1 construct: made in house; host or cells: E. coli (co-expressed with SEK-1 and MEKK)
Description: Inhibition of p-38 (MAP) kinase in vitro assay (transfer of γ-33P from ATP to Myelin Basic Protein). It is filed as biochemical. Particulars: phosphorylated recombinant p38 MAP kinase, MBP substrate, γ-33P-ATP, 30° C.; read-out: p-38 inhibitory activity, IC50. The procedure: Inhibition Of p-38 (MAP) Kinase . . . In Vitro Assay
The p-38 MAP kinase inhibitory activity of compounds of this invention in vitro was determined by measuring the transfer of the γ-phosphate from γ-^33P-ATP by p-38 kinase to Myelin Basic Protein (MBP), using the a minor modification of the method described in Ahn, N. G.; et al. J. Biol. Chem. Vol. 266(7), 4220-4227, (1991).
The phosphorylated form of the recombinant p38 MAP kinase was expressed with SEK-1 and MEKK in E. Coli and then purified by affinity chromatography using a Nickel column.
The phosphorylated p38 MAP kinase was diluted in kinase buffer (20 mM 3-(N-morpholino)propanesulfonic acid, pH 7.2, 25 mM β-glycerol phosphate, 5 mM ethylene glycol-bis (beta-aminoethyl ether)-N,N,N′,N′-tetraacetic acid, 1 mM sodium vanadate, 1 mM dithiothreitol, 40 mM magnesium chloride). Test compound dissolved in DMSO or only DMSO (control) was added and the samples were incubated for 10 min at 30° C. The kinase reaction was initiated by the addition of a substrate cocktail containing MBP and γ-^33P-ATP. After incubating for an additional 20 min at 30° C., the reaction was terminated by adding 0.75% phosphoric acid. The phosphorylated MBP was then separated from the residual γ-^33P-ATP using a phosphocellulose membrane (Millipore, Bedford, Mass.) and quantitated using a scintillation counter (Packard, Meriden, Conn.).
Compounds of the invention were active in this assay. The p-38 inhibitory activities (expressed as IC50, the concentration causing 50% inhibition of the p-38 enzyme being assayed) of some compounds of the invention are: […]
What is called IC50 is the concentration at which inhibition is half-maximal. With `Nc1c(C(=O)c2ccccc2)cc(-c2cccnc2)n1-c1ccc(F)cc1` [Cpd 1], the half-inhibitory concentration (IC50) was 164 nM.

In the case of `COc1cccc(C(=O)c2cc(-c3cccnc3)n(-c3ccc(F)cc3)c2N)c1` [Cpd 2], the IC50 was found to be 169 nM.

For `Nc1c(C(=O)c2cccc(OC[C@H](O)CO)c2)cc(-c2cccnc2)n1-c1ccc(F)cc1` [Cpd 4], the IC50 is 120 nM.

Consider `Nc1c(C(=O)c2cccc(O)c2)cc(-c2cccnc2)n1-c1ccc(F)cc1` [Cpd 3], for which the IC50 came out at 468 nM.
